Data published in ChEMBL document CHEMBL5113520, “From a Cone Snail Toxin to a Competitive MC4R Antagonist” (J Med Chem, 2022).
Where a SMILES comes first, the peptide text is derived from it. Bridges are numbered along the chain shown (N, C = ends).

Legend:
Type in all cases: cell-based
Melanocortin receptor 4 = Melanocortin receptor 4 (Homo sapiens, UniProt P32245); assay: Displacement of [125I]-NDP-alpha-MSH from human MC4R expressed in CHO cells by Topcount beta counter analysis
[1] = target: Melanocyte-stimulating hormone receptor (Homo sapiens, UniProt Q01726); assay: Displacement of [125I]-NDP-alpha-MSH from human MC1R expressed in CHO cells by Topcount beta counter analysis
Melanocortin receptor 3 = Melanocortin receptor 3 (Homo sapiens, UniProt P41968); assay: Displacement of [125I]-NDP-alpha-MSH from human MC3R expressed in HEK293 cells by Topcount beta counter analysis
Melanocortin receptor 5 = Melanocortin receptor 5 (Homo sapiens, UniProt P33032); assay: Displacement of [125I]-NDP-alpha-MSH from human MC5R expressed in CHO cells by Topcount beta counter analysis
Sequence of Melanocortin receptor 5 (P33032 whole entry): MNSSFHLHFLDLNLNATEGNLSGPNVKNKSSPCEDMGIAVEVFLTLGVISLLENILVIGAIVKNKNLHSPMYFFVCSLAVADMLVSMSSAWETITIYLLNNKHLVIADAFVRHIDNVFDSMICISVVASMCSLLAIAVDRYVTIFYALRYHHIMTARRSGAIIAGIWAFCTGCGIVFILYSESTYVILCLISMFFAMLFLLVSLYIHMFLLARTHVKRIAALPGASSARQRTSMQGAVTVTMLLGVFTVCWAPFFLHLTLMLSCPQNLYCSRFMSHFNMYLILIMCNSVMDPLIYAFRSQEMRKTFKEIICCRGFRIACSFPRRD

Sequence of Melanocyte-stimulating hormone receptor (Q01726 whole entry): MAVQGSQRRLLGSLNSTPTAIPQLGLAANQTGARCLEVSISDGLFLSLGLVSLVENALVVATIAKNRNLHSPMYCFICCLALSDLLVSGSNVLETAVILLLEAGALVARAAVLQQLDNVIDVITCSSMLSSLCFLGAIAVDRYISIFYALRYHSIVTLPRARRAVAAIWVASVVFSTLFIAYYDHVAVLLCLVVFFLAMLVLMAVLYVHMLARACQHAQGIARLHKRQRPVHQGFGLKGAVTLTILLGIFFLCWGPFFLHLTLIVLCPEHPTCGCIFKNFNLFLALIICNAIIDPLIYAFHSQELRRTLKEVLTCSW
Sequence of Melanocortin receptor 3 (P41968 whole entry): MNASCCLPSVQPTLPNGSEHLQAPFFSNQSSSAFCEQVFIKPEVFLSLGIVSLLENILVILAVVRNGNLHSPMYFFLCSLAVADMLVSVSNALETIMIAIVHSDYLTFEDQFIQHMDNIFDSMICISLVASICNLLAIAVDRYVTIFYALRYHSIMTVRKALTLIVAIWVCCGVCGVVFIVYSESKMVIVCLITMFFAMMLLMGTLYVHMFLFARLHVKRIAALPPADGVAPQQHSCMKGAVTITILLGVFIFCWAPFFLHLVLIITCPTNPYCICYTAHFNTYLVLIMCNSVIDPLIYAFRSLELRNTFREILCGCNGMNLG
Sequence of Melanocortin receptor 4 (P32245 whole entry): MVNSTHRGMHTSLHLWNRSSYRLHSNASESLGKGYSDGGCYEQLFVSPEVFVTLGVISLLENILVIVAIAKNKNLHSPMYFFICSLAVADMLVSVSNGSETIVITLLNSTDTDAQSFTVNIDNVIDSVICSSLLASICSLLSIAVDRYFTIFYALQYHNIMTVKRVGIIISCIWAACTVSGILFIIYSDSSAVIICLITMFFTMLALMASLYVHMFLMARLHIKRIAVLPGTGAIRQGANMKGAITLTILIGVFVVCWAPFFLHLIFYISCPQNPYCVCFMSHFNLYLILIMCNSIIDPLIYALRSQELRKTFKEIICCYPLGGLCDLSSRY

Compound	Ki (Melanocortin receptor 4; read-out: Ki) [nM]	Ki (Melanocortin receptor 4; read-out: pKi (converted)) [nM]	Ki ([1]; read-out: pKi (converted)) [nM]	Ki (Melanocortin receptor 3; read-out: pKi (converted)) [nM]	Ki (Melanocortin receptor 5; read-out: pKi (converted)) [nM]	Ki ([1]; read-out: Ki) [nM]	Ki (Melanocortin receptor 3; read-out: Ki) [nM]	Ki (Melanocortin receptor 5; read-out: Ki) [nM]
H-YQQKQKPPGFKGKFQQFKLRPP-OH	1440	1320	–	–	–	–	–	–
CC(C)C[C@H](NC(=O)[C@H](CCCCN)NC(=O)[C@H](Cc1ccccc1)NC(=O)[C@H](CCC(N)=O)NC(=O)[C@@H]1CSSC[C@H](NC(=O)[C@H](Cc2ccc(O)cc2)NC(=O)[C@H](Cc2c[nH]cn2)NC(=O)[C@H](Cc2ccccc2)NC(=O)[C@@H](N)CC(C)C)C(=O)N[C@@H](CCC(N)=O)C(=O)N[C@@H](C(C)C)C(=O)N[C@@H](CCC(N)=O)C(=O)N[C@@H](C(C)C)C(=O)N2CCC[C@H]2C(=O)N2CCC[C@H]2C(=O)NCC(=O)N[C@@H](Cc2ccccc2)C(=O)N[C@@H](CCCCN)C(=O)NCC(=O)N[C@@H](CCCCN)C(=O)N[C@@H](Cc2ccccc2)C(=O)N1)C(=O)N[C@@H](CCCNC(=N)N)C(=O)N1CCC[C@H]1C(=O)N1CCC[C@H]1C(=O)O (H-LFHYCQVQVPPGFKGKFCQFKLRPP-OH; disulfide 5-18)	–	60.3	724	282	224	–	–	–
CC(C)C[C@H](NC(=O)[C@H](CCCCN)NC(=O)[C@H](Cc1ccccc1)NC(=O)[C@H](CCC(N)=O)NC(=O)[C@@H]1CSSC[C@H](NC(=O)[C@H](Cc2ccc(O)cc2)NC(=O)[C@H](Cc2c[nH]cn2)NC(=O)[C@H](Cc2ccccc2)NC(=O)[C@@H](N)CC(C)C)C(=O)N[C@@H](CCC(N)=O)C(=O)N[C@@H](CO)C(=O)N[C@@H](CCC(N)=O)C(=O)N[C@@H](CO)C(=O)N2CCC[C@H]2C(=O)N2CCC[C@H]2C(=O)NCC(=O)N[C@@H](Cc2ccccc2)C(=O)N[C@@H](CCCCN)C(=O)NCC(=O)N[C@@H](CCCCN)C(=O)N[C@@H](Cc2ccccc2)C(=O)N1)C(=O)N[C@@H](CCCNC(=N)N)C(=O)N1CCC[C@H]1C(=O)N1CCC[C@H]1C(=O)O (H-LFHYCQSQSPPGFKGKFCQFKLRPP-OH; disulfide 5-18)	–	67.6	776	224	229	–	–	–
CC(C)C[C@H](NC(=O)[C@H](CCCCN)NC(=O)[C@H](Cc1ccccc1)NC(=O)[C@H](CCC(N)=O)NC(=O)[C@@H]1CSSC[C@@H]2NC(=O)[C@H](CCC(N)=O)NC(=O)[C@@H](NC(=O)[C@H](Cc3ccc(O)cc3)NC(=O)[C@H](Cc3c[nH]cn3)NC(=O)[C@H](Cc3ccccc3)NC(=O)[C@@H](N)CC(C)C)CSSC[C@H](NC(=O)[C@H](CCC(N)=O)NC2=O)C(=O)N2CCC[C@H]2C(=O)N2CCC[C@H]2C(=O)NCC(=O)N[C@@H](Cc2ccccc2)C(=O)N[C@@H](CCCCN)C(=O)NCC(=O)N[C@@H](CCCCN)C(=O)N[C@@H](Cc2ccccc2)C(=O)N1)C(=O)N[C@@H](CCCNC(=N)N)C(=O)N1CCC[C@H]1C(=O)N1CCC[C@H]1C(=O)O (H-LFHYCQCQCPPGFKGKFCQFKLRPP-OH; disulfide 5-9, 7-18)	49	44.7	617	–	33.9	549	90	53
CC(C)C[C@H](NC(=O)[C@H](CCCCN)NC(=O)[C@H](Cc1ccccc1)NC(=O)[C@H](CCC(N)=O)NC(=O)[C@@H]1CSSC[C@H](NC(=O)[C@@H](Cc2ccc(O)cc2)NC(=O)[C@H](Cc2c[nH]cn2)NC(=O)[C@H](Cc2ccccc2)NC(=O)[C@@H](N)CC(C)C)C(=O)N[C@@H](CCC(N)=O)C(=O)N[C@@H](CCCCN)C(=O)N[C@@H](CCC(N)=O)C(=O)N[C@@H](CCCCN)C(=O)N2CCC[C@H]2C(=O)N2CCC[C@H]2C(=O)NCC(=O)N[C@@H](Cc2ccccc2)C(=O)N[C@@H](CCCCN)C(=O)NCC(=O)N[C@@H](CCCCN)C(=O)N[C@@H](Cc2ccccc2)C(=O)N1)C(=O)N[C@@H](CCCNC(=N)N)C(=O)N1CCC[C@H]1C(=O)N1CCC[C@H]1C(=O)O	–	6.92	85.1	30.9	25.7	–	–	–
CC(C)C[C@H](NC(=O)[C@H](CCCCN)NC(=O)[C@H](Cc1ccccc1)NC(=O)[C@H](CCC(N)=O)NC(=O)[C@@H]1CSSC[C@H](NC(=O)[C@H](CCC(N)=O)NC(=O)[C@H](C)NC(=O)[C@H](Cc2ccc(O)cc2)NC(=O)[C@H](Cc2c[nH]cn2)NC(=O)[C@H](Cc2ccccc2)NC(=O)[C@@H](N)CC(C)C)C(=O)N[C@@H](CCC(N)=O)C(=O)N[C@@H](C)C(=O)N2CCC[C@H]2C(=O)N2CCC[C@H]2C(=O)NCC(=O)N[C@@H](Cc2ccccc2)C(=O)N[C@@H](CCCCN)C(=O)NCC(=O)N[C@@H](CCCCN)C(=O)N[C@@H](Cc2ccccc2)C(=O)N1)C(=O)N[C@@H](CCCNC(=N)N)C(=O)N1CCC[C@H]1C(=O)N1CCC[C@H]1C(=O)O (H-LFHYAQCQAPPGFKGKFCQFKLRPP-OH; disulfide 7-18)	–	245	–	–	–	–	–	–
Ac-LFHYQQKQKPPGFKGKFQQFKLRPP-OH	138	135	–	–	–	–	–	–
H-LFHYQQKQKPPGFKGKFQQFKL-OH	29	27.5	–	–	–	–	–	–
H-AFHYQQKQKPPGFKGKFQQFKLRPP-OH	125	123	–	–	–	–	–	–
H-LFHYQQKQKPPGFKGKFQQF-OH	55	53.7	–	–	–	–	–	–
CC(C)C[C@H](NC(=O)[C@H](CCCCN)NC(=O)[C@H](Cc1ccccc1)NC(=O)[C@H](CCC(N)=O)NC(=O)[C@@H]1CSSC[C@H](NC(=O)[C@H](CCC(N)=O)NC(=O)[C@H](C)NC(=O)[C@H](CCC(N)=O)NC(=O)[C@H](C)NC(=O)[C@H](Cc2ccc(O)cc2)NC(=O)[C@H](Cc2c[nH]cn2)NC(=O)[C@H](Cc2ccccc2)NC(=O)[C@@H](N)CC(C)C)C(=O)N2CCC[C@H]2C(=O)N2CCC[C@H]2C(=O)NCC(=O)N[C@@H](Cc2ccccc2)C(=O)N[C@@H](CCCCN)C(=O)NCC(=O)N[C@@H](CCCCN)C(=O)N[C@@H](Cc2ccccc2)C(=O)N1)C(=O)N[C@@H](CCCNC(=N)N)C(=O)N1CCC[C@H]1C(=O)N1CCC[C@H]1C(=O)O (H-LFHYAQAQCPPGFKGKFCQFKLRPP-OH; disulfide 9-18)	–	245	–	–	–	–	–	–
CC(C)C[C@H](NC(=O)[C@H](CCCCN)NC(=O)[C@H](Cc1ccccc1)NC(=O)[C@H](CCC(N)=O)NC(=O)[C@@H]1CSSC[C@H](NC(=O)[C@H](Cc2ccc(O)cc2)NC(=O)[C@H](Cc2c[nH]cn2)NC(=O)[C@H](Cc2ccccc2)NC(=O)[C@@H](N)CC(C)C)C(=O)N[C@@H](CCC(N)=O)C(=O)N[C@@H](C)C(=O)N[C@@H](CCC(N)=O)C(=O)N[C@@H](C)C(=O)N2CCC[C@H]2C(=O)N2CCC[C@H]2C(=O)NCC(=O)N[C@@H](Cc2ccccc2)C(=O)N[C@@H](CCCCN)C(=O)NCC(=O)N[C@@H](CCCCN)C(=O)N[C@@H](Cc2ccccc2)C(=O)N1)C(=O)N[C@@H](CCCNC(=N)N)C(=O)N1CCC[C@H]1C(=O)N1CCC[C@H]1C(=O)O (H-LFHYCQAQAPPGFKGKFCQFKLRPP-OH; disulfide 5-18)	–	117	912	170	195	–	–	–
